ChEMBL document CHEMBL5154863, “Design and synthesis of quinolinium-based derivatives targeting FtsZ for antibacterial evaluation and mechanistic study” (Eur J Med Chem, 2022)
≈ marks a conversion by molar mass, not a printed value. Calls of active or inactive are those of the source. The calls are words filed in the database; no cut-off is given here.

Tests used:
Staphylococcus aureus [1] = assay: microbe, parasite or virus in culture; conditions: ATCC BAA41, 24 h
Description: Synergistic antibacterial activity against methicillin-resistant Staphylococcus aureus ATCC BAA41 assessed as inhibition of bacterial growth incubated for 24 hrs in presence of (E)-2-(4-(dimethylamino)styryl)-1-methyl-4-(piperidin-1-yl)quinolin-1-ium iodide by checker board assay

Staphylococcus aureus [2] = assay: microbe, parasite or virus in culture; conditions: ATCC BAA41, 24 h; remark: listed apart in the source
Description: Synergistic antibacterial activity against methicillin-resistant Staphylococcus aureus ATCC BAA41 assessed as inhibition of bacterial growth incubated for 24 hrs in presence of (E)-2-(4-(dimethylamino)styryl)-1-methyl-4-(pentylamino)quinolin-1-ium iodide by checker board assay

Staphylococcus aureus [3] = assay: Antibacterial activity against methicillin-resistant Staphylococcus aureus ATCC BAA41 assessed as inhibition of bacterial growth incubated for 24 hrs by checker board assay; format: functional
Staphylococcus aureus [4] = assay: microbe, parasite or virus in culture; conditions: ATCC BAA41, 24 h; remark: listed apart in the source
Description: Synergistic antibacterial activity against methicillin-resistant Staphylococcus aureus ATCC BAA41 assessed as inhibition of bacterial growth incubated for 24 hrs in presence of (E)-2-(4-(dimethylamino)styryl)-1-methyl-4-(4-methylpiperidin-1-yl)quinolin-1-ium iodide by checker board assay

Staphylococcus aureus [5] = assay: microbe, parasite or virus in culture; conditions: ATCC BAA41, 24 h; remark: listed apart in the source
Description: Synergistic antibacterial activity against methicillin-resistant Staphylococcus aureus ATCC BAA41 assessed as inhibition of bacterial growth incubated for 24 hrs in presence of (E)-4-(4-(dimethylamino)styryl)-1-methyl-2-(4-methylpiperidin-1-yl)quinolin-1-ium iodide by checker board assay

[6] = molecular target: T1, Cell division protein FtsZ (Staphylococcus aureus) (UniProt P0A031); assay: Binding affinity to Staphylococcus aureus FtsZ assessed as increase in alpha helix structure at 8 ug/ml incubated for 30 mins by circular dichroism method; conditions: dose 8.0 µg/ml
T1 sequence (whole entry): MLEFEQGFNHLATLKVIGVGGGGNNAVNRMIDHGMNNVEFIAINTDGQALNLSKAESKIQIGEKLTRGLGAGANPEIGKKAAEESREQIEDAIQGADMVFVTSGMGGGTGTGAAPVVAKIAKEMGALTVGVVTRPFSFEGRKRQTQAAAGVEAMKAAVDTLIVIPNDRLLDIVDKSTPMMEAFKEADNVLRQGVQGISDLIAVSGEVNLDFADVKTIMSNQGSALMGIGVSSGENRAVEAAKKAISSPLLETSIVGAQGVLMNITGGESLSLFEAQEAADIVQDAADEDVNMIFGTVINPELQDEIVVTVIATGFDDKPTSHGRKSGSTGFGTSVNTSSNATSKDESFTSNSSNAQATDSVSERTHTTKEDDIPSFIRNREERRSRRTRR

Bacillus subtilis [7] = assay: Induction of drug resistance against Bacillus subtilis CMCC (B) 63501 measured after 16 passages; format: functional; conditions: dose <= 64.0 µg/ml, time 30.0 min
Klebsiella pneumoniae = assay: Antibacterial activity against NDM-1 expressing Klebsiella pneumoniae ATCC BAA 2470 assessed as inhibition of bacterial growth incubated for 20 to 24 hrs by broth micro dilution method; format: functional; conditions: time 20-24 hrs
[8] = molecular target: T1, Cell division protein FtsZ (Staphylococcus aureus); assay: Binding affinity to Staphylococcus aureus FtsZ assessed as decrease in beta turn structure at 8 ug/ml incubated for 30 mins by circular dichroism method; conditions: dose 8.0 µg/ml
Enterococcus faecium [9] = assay: Antibacterial activity against Enterococcus faecium ATCC 49624 assessed as inhibition of bacterial growth incubated for 20 to 24 hrs by broth micro dilution method; format: functional; conditions: time 20-24 hrs
[10] = Cytotoxicity against mouse L929 cells incubated for 48 hrs by MTT assay; format: toxicity, cell-based
Staphylococcus aureus [11] = assay: Synergistic antibacterial activity against methicillin-resistant Staphylococcus aureus ATCC BAA41 assessed as inhibition of bacterial growth incubated for 24 hrs in presence of methicillin by checker board assay; format: functional
Enterococcus faecium [12] = assay: Antibacterial activity against vancomycin resistant Enterococcus faecium ATCC 700221 assessed as inhibition of bacterial growth incubated for 20 to 24 hrs by broth micro dilution method; format: functional; conditions: time 20-24 hrs
Escherichia coli [13] = assay: Antibacterial activity against Escherichia coli ATCC 25922 assessed as inhibition of bacterial growth incubated for 20 to 24 hrs by broth micro dilution method; format: functional; conditions: time 20-24 hrs
Enterococcus faecalis = assay: Antibacterial activity against Enterococcus faecalis ATCC 29212 assessed as inhibition of bacterial growth incubated for 20 to 24 hrs by broth micro dilution method; format: functional; conditions: time 20-24 hrs
Staphylococcus aureus [14] = assay: Antibacterial activity against Staphylococcus aureus ATCC 29213 infected in L929 cells assessed as inhibition of bacterial growth incubated for 20 to 24 hrs by broth micro dilution method; format: functional; conditions: time 20-24 hrs
Staphylococcus aureus [15] = assay: Antibacterial activity against methicillin-resistant Staphylococcus aureus ATCC 33592 assessed as inhibition of bacterial growth incubated for 20 to 24 hrs by broth micro dilution method; format: functional; conditions: time 20-24 hrs
[16] = Ratio of MBC for bactericidal activity against Bacillus subtilis CMCC (B) 63501 to MIC for antibacterial activity against Bacillus subtilis CMCC (B) 63501; format: functional
Erythrocyte = assay: Hemolytic activity in Kunming mouse erythrocyte at 1 to 64 ug/ml incubated for 1 hr; format: toxicity, cell-based; conditions: dose 1-64 µg/ml
Pseudomonas aeruginosa = assay: Antibacterial activity against […] Pseudomonas aeruginosa ATCC 27853 assessed as inhibition of bacterial growth incubated for 20 to 24 hrs by broth micro dilution method; format: functional; conditions: time 20-24 hrs
Enterococcus faecium [17] = assay: Bactericidal activity against Enterococcus faecium ATCC 700221 assessed as inhibition of bacterial growth incubated for 24 hrs by resazurin dye based microtiter plate assay; format: functional
Enterococcus faecium [18] = assay: Antibacterial activity against vancomycin-resistant Enterococcus faecium clinical isolate assessed as inhibition of bacterial growth incubated for 20 to 24 hrs by broth micro dilution method; format: functional; conditions: time 20-24 hrs
Bacillus subtilis [19] = assay: Bactericidal activity against Bacillus subtilis CMCC (B) 63501 assessed as inhibition of bacterial growth incubated for 24 hrs by resazurin dye based microtiter plate assay; format: functional
[20] = test system: Staphylococcus epidermidis; assay: Antibacterial activity against Staphylococcus epidermidis ATCC 12228 assessed as inhibition of bacterial growth incubated for 20 to 24 hrs by broth micro dilution method; format: functional; conditions: time 20-24 hrs
[21] = molecular target: T1, Cell division protein FtsZ (Staphylococcus aureus); assay: Binding affinity to Staphylococcus aureus FtsZ assessed as equilibrium binding constant by isothermal titration calorimetry
Staphylococcus aureus [22] = assay: Antibacterial activity against vancomycin-intermediate Staphylococcus aureus Mu50 assessed as inhibition of bacterial growth incubated for 20 to 24 hrs by broth micro dilution method; format: functional; conditions: time 20-24 hrs
Staphylococcus aureus [23] = assay: Antibacterial activity against Staphylococcus aureus ATCC 29213 assessed as inhibition of bacterial growth incubated for 20 to 24 hrs by broth micro dilution method; format: functional; conditions: time 20-24 hrs
Staphylococcus aureus [24] = assay: Antibacterial activity against methicillin-resistant Staphylococcus aureus ATCC 43300 assessed as inhibition of bacterial growth incubated for 20 to 24 hrs by broth micro dilution method; format: functional; conditions: time 20-24 hrs
[25] = molecular target: T2, Cell division protein FtsZ (Staphylococcus aureus, UniProt P0A031); assay: Binding affinity to Staphylococcus aureus FtsZ assessed as dissociation constant by isothermal titration calorimetry
T2 sequence (P0A031 whole entry): T1 sequence (whole entry)

Bacillus subtilis [26] = assay: Induction of morphological changes in Bacillus subtilis CMCC (B) 63501 assessed as elongation of bacterial cell at 0.5 times MIC for 4 hrs (reference value: 3 to 5 um) by microscopic analysis; format: functional
[27] = Ratio of MBC for bactericidal activity against Staphylococcus aureus ATCC 29213 to MIC for antibacterial activity against Staphylococcus aureus ATCC 29213; format: functional
Escherichia coli [28] = assay: Antibacterial activity against Escherichia coli ATCC 8739 assessed as inhibition of bacterial growth incubated for 20 to 24 hrs by broth micro dilution method; format: functional; conditions: time 20-24 hrs
[29] = molecular target: T1, Cell division protein FtsZ (Staphylococcus aureus); assay: Induction of Staphylococcus aureus FtsZ polymerization expressed in Escherichia coli BL21 (DE3) assessed as increase in absorbance at 2 to 8 ug/ml in presence of GTP by microplate reader method; conditions: dose 2-8 µg/ml, DDE = dose-dependent effect
Escherichia coli [30] = assay: Antibacterial activity against NDM-1 expressing Escherichia coli ATCC BAA2469 assessed as inhibition of bacterial growth incubated for 20 to 24 hrs by broth micro dilution method; format: functional; conditions: time 20-24 hrs
[31] = Cytotoxicity against human HK-2 cells incubated for 48 hrs by MTT assay; format: toxicity, cell-based
Staphylococcus aureus [32] = assay: Bactericidal activity against Staphylococcus aureus ATCC 43300 assessed as inhibition of bacterial growth incubated for 24 hrs by resazurin dye based microtiter plate assay; format: functional
[33] = molecular target: T1, Cell division protein FtsZ (Staphylococcus aureus); assay: Binding affinity to Staphylococcus aureus FtsZ assessed as decrease in other structure at 8 ug/ml incubated for 30 mins by circular dichroism method; conditions: dose 8.0 µg/ml
Staphylococcus aureus [34] = assay: Antibacterial activity against Staphylococcus aureus ATCC 29213 infected in HK-2 cells assessed as inhibition of bacterial growth incubated for 20 to 24 hrs by broth micro dilution method; format: functional; conditions: time 20-24 hrs
[35] = Ratio of MBC for bactericidal activity against Staphylococcus aureus ATCC 43300 to MIC for antibacterial activity against Staphylococcus aureus ATCC 43300; format: functional
[36] = molecular target: T1, Cell division protein FtsZ (Staphylococcus aureus); assay: Induction of Staphylococcus aureus FtsZ polymerization expressed in Escherichia coli BL21 (DE3) assessed as increase in absorbance at 2 to 8 ug/ml by microplate reader method; conditions: dose 2-8 µg/ml
Staphylococcus aureus [37] = assay: Bactericidal activity against Staphylococcus aureus ATCC 29213 assessed as inhibition of bacterial growth incubated for 24 hrs by resazurin dye based microtiter plate assay; format: functional
Bacillus subtilis [38] = assay: Antibacterial activity against Bacillus subtilis CMCC (B) 63501 assessed as inhibition of bacterial growth incubated for 20 to 24 hrs by broth micro dilution method; format: functional; conditions: time 20-24 hrs
Staphylococcus aureus [39] = assay: Antibacterial activity against methicillin-resistant Staphylococcus aureus ATCC BAA41 assessed as fractional inhibitory concentration index incubated for 24 hrs by checker board assay; format: functional
Staphylococcus aureus [40] = assay: Induction of drug resistance against Staphylococcus aureus ATCC 29213 assessed as fold increase in MIC after 16 passage; format: functional
[41] = Ratio of MBC for bactericidal activity against Enterococcus faecium ATCC 700221 to MIC for antibacterial activity against Enterococcus faecium ATCC 700221; format: functional
Staphylococcus aureus [42] = assay: Induction of morphological changes in Staphylococcus aureus ATCC 29213 assessed as enlargement of cell size at 0.5 times MIC for 4 hrs by microscopic analysis; format: functional, organism-based
Acinetobacter baumannii = assay: Antibacterial activity against multi-drug resistant Acinetobacter baumannii ATCC 19606 assessed as inhibition of bacterial growth incubated for 20 to 24 hrs by broth micro dilution method; format: functional; conditions: time 20-24 hrs
[43] = molecular target: T1, Cell division protein FtsZ (Staphylococcus aureus); assay: Binding affinity to Staphylococcus aureus FtsZ assessed as decrease in random coil structure at 8 ug/ml incubated for 30 mins by circular dichroism method; conditions: dose 8.0 µg/ml
Staphylococcus aureus [44] = assay: Antibacterial activity against methicillin-resistant Staphylococcus aureus ATCC BAA-1720 assessed as inhibition of bacterial growth incubated for 20 to 24 hrs by broth micro dilution method; format: functional; conditions: time 20-24 hrs

COc1cccc(OC)c1C(=O)N[C@@H]1C(=O)N2[C@@H]1SC(C)(C)[C@@H]2C(=O)O [METHICILLIN]
MIC (Staphylococcus aureus [1]): 128 µg/mL (≈ 336 µM) | MIC (Staphylococcus aureus [2]): 256 µg/mL (≈ 673 µM) | MIC (Staphylococcus aureus [3]): 1020 µg/mL | MIC (Staphylococcus aureus [4]): 64 µg/mL (≈ 168 µM) | MIC (Staphylococcus aureus [5]): 64 µg/mL (≈ 168 µM)

CC1CCN(c2cc(/C=C/c3ccc(N(C)C)cc3)c3ccccc3[n+]2C)CC1.[I-]
Activity [6]: Active | Activity (Bacillus subtilis [7]): Active | MIC (Klebsiella pneumoniae): > 64 µg/mL | Activity [8]: Active | MIC (Enterococcus faecium [9]): 16 µg/mL | IC50 at 48 h [10]: 11.3 µg/mL | MIC (Staphylococcus aureus [11]): 4 µg/mL | MIC (Enterococcus faecium [12]): 2 µg/mL | MIC (Escherichia coli [13]): 32 µg/mL | MIC (Enterococcus faecalis): 16 µg/mL | MIC (Staphylococcus aureus [14]): 2 µg/mL | MIC (Staphylococcus aureus [15]): 4 µg/mL | Ratio [16]: 2 | IC5 (Erythrocyte): 32 µg/mL | MIC (Pseudomonas aeruginosa): > 64 µg/mL | MBC (Enterococcus faecium [17]): 8 µg/mL | MIC (Enterococcus faecium [18]): 16 µg/mL | MBC (Bacillus subtilis [19]): 16 µg/mL | MIC [20]: 1 µg/mL | Kb [21]: 2.08 10^5/M | MIC (Staphylococcus aureus [22]): 4 µg/mL | MIC (Staphylococcus aureus [23]): 2 µg/mL | MIC (Staphylococcus aureus [24]): 4 µg/mL | Kd [25]: 3.86 µM | Activity (Bacillus subtilis [26]): 30 um | Ratio [27]: >4 | MIC (Escherichia coli [28]): 64 µg/mL | Activity [29]: Dde | MIC (Escherichia coli [30]): 64 µg/mL | IC50 at 48 h [31]: 8.89 µg/mL | MBC (Staphylococcus aureus [32]): 32 µg/mL | Activity [33]: Active | MIC (Staphylococcus aureus [34]): 2 µg/mL | Ratio [35]: >4 | Activity [36]: Active | MBC (Staphylococcus aureus [37]): 16 µg/mL | MIC (Bacillus subtilis [38]): 8 µg/mL | MIC (Staphylococcus aureus [3]): 16 µg/mL | fractional inhibitory concentration index (FICI) (Staphylococcus aureus [39]): 0.3125 | fold change (FC) (Staphylococcus aureus [40]): 8 | Ratio [41]: 4 | Activity (Staphylococcus aureus [42]): Active | MIC (Acinetobacter baumannii): > 64 µg/mL | Activity [43]: Active | MIC (Staphylococcus aureus [44]): 4 µg/mL
